According to patent publication US20260364184A1, “COMPOUND BASED ON OXOISOINDOLINYL-SUBSTITUTED TETRAHYDROPYRIMIDINE-DIONE AND USE THEREOF” (GLUETACS THERAPEUTICS (SHANGHAI) CO., LTD., priority 2023, published 2026):
Like-named read-outs stand apart in the source and are kept apart here.

Tests used:
Type in all cases: cell-based
[1] = test system: Human myeloid monocytic leukemia cell line (MV-4-11); assay: Inhibition of MV-4-11 cell proliferation (CellTiter luminescent viability); details: Homo sapiens, MV4-11, Table IJ2, Tau inhibitor-based, 96 hours; for inhibition at 0.01 µM: MV-4-11, 10 nM, read-out: Inhibition Rate at 10 nM (%); for inhibition at 0.5 µM: MV-4-11, 500 nM, read-out: Inhibition Rate at 500 nM (%)
Procedure, shortened: (§1)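 Cells are seeded in 96-well plates, cultured at 37 °C, 5% CO2, and treated next day with 5-fold serial compound dilutions (stock series from 2000 μM; 0.5 μL into 100 μL medium). Viability is read by CellTiter-Meiluncell luminescence after the set exposure, and IC50 is taken from growth-inhibition curves.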

[2] = test system: Human diffuse large B-cell lymphoma cell line (TMD8); assay: Inhibition of TMD8 cell proliferation (CellTiter luminescent viability); details: Homo sapiens, TMD8, 96 h; for inhibition at 0.01 µM: TMD8, 10 nM, read-out: Inhibition Rate at 10 nM (%); for inhibition at 0.5 µM: TMD8, 500 nM, read-out: Inhibition Rate at 500 nM (%)
Protocol: (§2) The tumor cells used herein were cultured in a cell culture medium listed in table 3 at 37 °C in an incubator with 5% CO2. Prior to experimentation, all cell lines used were correctly identified by STR profiling, and tested negative for mycoplasma contamination using a mycoplasma detection kit through routine screenings.
(§3) The IC50 values of the compounds of the present disclosure (including the compounds in Table 1, Table 2, and Examples 1-468) were determined using the CellTiter-Meiluncell Luminescent Cell Viability Assay Kit from Dalian Meilun Biotech Co., Ltd. The detailed procedure is as follows: Tumor cells were seeded in 96-well cell culture plates at the densities specified in Table 4. On the following day, the test compounds of the present disclosure were subjected to serial dilution. The dilution can be performed according to one of the following two methods: • (1) The first dilution method: The test compounds of the present disclosure (including the compounds in Table 1, Table 2, and Examples 1-468) were subjected to 5-fold serial dilutions starting from a highest concentration of 2000 μM, resulting in a total of 9 concentrations from high to low (2000, 400, 80, 16, 3.2, 0.64, 0.128, 0.0256, 0.00512 μM). Subsequently, 0.5 μL of the test compound dilution was transferred into the 96-well plate containing the cells, with each well containing 100 μL of cell culture medium. […] Into the 96-well plate, the diluted test compounds and corresponding detection reagents were added, resulting in final test compound concentrations of 500 nM and 10 nM, respectively. The experimental procedure is described below using the diluted 2 μM test compound as an example.
(§4) 0.5 μL of the aforementioned diluted compound of the present disclosure (including the compounds in Table 1, Table 2, and Examples 1-468) was added to the seeded cells in 100 μL of medium, yielding a final test compound concentration of 10 nM. After the cells were treated with the compounds of the present disclosure for a specified period, the cell viability assay reagent was added to the culture medium according to the kit's instructions to determine cell viability. […] All controls were treated using the same procedure as the compounds of the present disclosure. The growth inhibition curves for the compounds of the present disclosure were plotted using Prism GraphPad software, and the IC50 values were calculated therefrom.

[3] = test system: Human Multiple myeloma cell line (MM.1S); assay: Inhibition of MM.1S cell proliferation (CellTiter luminescent viability); details: Homo sapiens, MM1.S, Table IJ1, Tau inhibitor-based, 96 hours; for inhibition at 0.01 µM: 10 nM, read-out: Inhibition Rate at 10 nM (%); for inhibition at 0.5 µM: 500 nM, read-out: Inhibition Rate at 500 nM (%)
Procedure, shortened: as §1

[4] = test system: Human acute lymphocytic leukemia T lymphocytes cell line (CCRF-CEM); assay: Inhibition of CCRF-CEM cell proliferation (CellTiter luminescent viability); details: Homo sapiens, 96 h, Table IF2, AR inhibitor-based; for inhibition at 0.01 µM: 10 nM, read-out: Inhibition Rate at 10 nM (%); for inhibition at 0.5 µM: 500 nM, read-out: Inhibition Rate at 500 nM (%)
Protocol: as §2, §3, §4

SMILES | inhibition at 0.01 µM [1] | inhibition at 0.5 µM [1] | inhibition at 0.01 µM ([2]; Table IJ3, Tau inhibitor-based) | inhibition at 0.5 µM ([2]; Table IJ3, Tau inhibitor-based) | inhibition at 0.01 µM ([2]; Table IF1, AR inhibitor-based) | inhibition at 0.5 µM ([2]; Table IF1, AR inhibitor-based) | further results
Cc1cc(-c2ccc3c4cnccc4n(C)c3c2)cnc1N1CCN(CC2CCN(c3cccc4c3C(=O)N(N3CCC(=O)NC3=O)C4=O)CC2)CC1 [GT-08563, 2-(2,4-dioxotetrahydropyrimidin-1(2H)-yl)-4-(4-((4-(3-methyl-5-(5-methyl-5H-pyrido[4,3-b]indol-7-yl)pyridin-2-yl)piperazin-1-yl)methyl)piperidin-1-yl)isoindoline-1,3-dione] | 15 to 20% | 80 to 100% | 15 to 20% | 80 to 100% |  |  | inhibition at 0.01 µM [3]: 15 to 20%; inhibition at 0.5 µM [3]: 60 to 70%
O=C1CCN(N2C(=O)c3ccc(COc4ccc(Cl)cc4-c4nc5cc(C(F)(F)F)cc(Cl)c5[nH]4)cc3C2=O)C(=O)N1 [GT-06478, 5-((4-chloro-2-(7-chloro-5-(trifluoromethyl)-1H-benzo[d]imidazol-2-yl)phenoxy)methyl)-2-(2,4-dioxotetrahydropyrimidin-1(2H)-yl)isoindoline-1,3-dione] |  |  |  |  | 15 to 20% | 30 to 35% | 
N#Cc1ccc(O[C@H]2CC[C@H](NC(=O)c3ccc(N4CCC(CN5CCN(c6ccc7c(c6F)C(=O)N(N6CCC(=O)NC6=O)C7=O)CC5)CC4)nn3)CC2)cc1Cl [GT-05232, N-((1r,4r)-4-(3-chloro-4-cyanophenoxy)cyclohexyl)-6-(4-((4-(2-(2,4-dioxotetrahydropyrimidin-1(2H)-yl)-4-fluoro-1,3-dioxoisoindolin-5-yl)piperazin-1-yl)methyl)piperidin-1-yl)pyridazine-3-carboxamide] |  |  |  |  | 10 to 15% | 25 to 30% | 
Cn1c2ccncc2c2ccc(-c3ccc(N4CCN(CC5CCN(c6cccc7c6C(=O)N(N6CCC(=O)NC6=O)C7=O)CC5)CC4)nc3)cc21 [GT-08558, 2-(2,4-dioxotetrahydropyrimidin-1(2H)-yl)-4-(4-((4-(5-(5-methyl-5H-pyrido[4,3-b]indol-7-yl)pyridin-2-yl)piperazin-1-yl)methyl)piperidin-1-yl)isoindoline-1,3-dione] | -5 to 0% | 50 to 60% | 5 to 10% | 80 to 100% |  |  | 
Cn1c2ccncc2c2ccc(-c3cnc(N4CCN(CC5CCN(c6ccc7c(c6)C(=O)N(N6CCC(=O)NC6=O)C7=O)CC5)CC4)c(C(F)(F)F)c3)cc21 [GT-08553, 2-(2,4-dioxotetrahydropyrimidin-1(2H)-yl)-5-(4-((4-(5-(5-methyl-5H-pyrido[4,3-b]indol-7-yl)-3-(trifluoromethyl)pyridin-2-yl)piperazin-1-yl)methyl)piperidin-1-yl)isoindoline-1,3-dione] |  |  | 10 to 15% | 40 to 50% |  |  | 
CC1(C)[C@H](NC(=O)c2ccc(N3CCC(CN4CCN(C5CCN(c6ccc7c(c6)C(=O)N(N6CCC(=O)NC6=O)C7=O)CC5(F)F)CC4)CC3)nc2)C(C)(C)[C@H]1Oc1ccc(C#N)c(Cl)c1 (stereo partly shown) [GT-05347, N-((1r,3r)-3-(3-chloro-4-cyanophenoxy)-2,2,4,4-tetramethylcyclobutyl)-6-(4-((4-(1-(2-(2,4-dioxotetrahydropyrimidin-1(2H)-yl)-1,3-dioxoisoindolin-5-yl)-3,3-difluoropiperidin-4-yl)piperazin-1-yl)methyl)piperidin-1-yl)nicotinamide] |  |  |  |  | 5 to 10% | 20 to 25% | 
Cn1c2ccncc2c2ccc(-c3cnc(N4CCN(CC5CCN(c6cccc7c6C(=O)N(N6CCC(=O)NC6=O)C7=O)CC5)CC4)c(Cl)c3)cc21 [GT-08564, 4-(4-((4-(3-chloro-5-(5-methyl-5H-pyrido[4,3-b]indol-7-yl)pyridin-2-yl)piperazin-1-yl)methyl)piperidin-1-yl)-2-(2,4-dioxotetrahydropyrimidin-1(2H)-yl)isoindoline-1,3-dione] | 0 to 5% | 70 to 80% | 10 to 15% | 80 to 100% |  |  | 
CC1(C)[C@H](NC(=O)c2ccc(N3CCC(CN4CCN(c5cc6c(cc5F)C(=O)N(N5CCC(=O)NC5=O)C6=O)CC4)CC3)nc2)C(C)(C)[C@H]1Oc1ccc(C#N)c(Cl)c1 [GT-05304, N-((1r,3r)-3-(3-chloro-4-cyanophenoxy)-2,2,4,4-tetramethylcyclobutyl)-6-(4-((4-(2-(2,4-dioxotetrahydropyrimidin-1(2H)-yl)-6-fluoro-1,3-dioxoisoindolin-5-yl)piperazin-1-yl)methyl)piperidin-1-yl)nicotinamide] |  |  |  |  | 30 to 35% | 40 to 60% | inhibition at 0.01 µM [4]: 20 to 30%; inhibition at 0.5 µM [4]: 30 to 40%
O=C1CCN(N2C(=O)c3cccc(N4CCC(CN5CCN(c6ccc(-c7ccc8c(c7)[nH]c7ccncc78)cn6)CC5)CC4)c3C2=O)C(=O)N1 [GT-08557, 4-(4-((4-(5-(5H-pyrido[4,3-b]indol-7-yl)pyridin-2-yl)piperazin-1-yl)methyl)piperidin-1-yl)-2-(2,4-dioxotetrahydropyrimidin-1(2H)-yl)isoindoline-1,3-dione] |  |  | 0 to 5% | 60 to 70% |  |  | inhibition at 0.01 µM [3]: 30 to 40%; inhibition at 0.5 µM [3]: 50 to 60%
CC1(C)[C@H](NC(=O)c2ccc(N3CCC(CN4CC5CC(C4)N5c4ccc5c(c4)C(=O)N(N4CCC(=O)NC4=O)C5=O)CC3)nc2)C(C)(C)[C@H]1Oc1ccc(C#N)c(Cl)c1 [GT-05306, N-((1r,3r)-3-(3-chloro-4-cyanophenoxy)-2,2,4,4-tetramethylcyclobutyl)-6-(4-((6-(2-(2,4-dioxotetrahydropyrimidin-1(2H)-yl)-1,3-dioxoisoindolin-5-yl)-3,6-diazabicyclo[3.1.1]heptan-3-yl)methyl)piperidin-1-yl)nicotinamide] |  |  |  |  | 10 to 15% | 20 to 25% | inhibition at 0.01 µM [4]: 15 to 20%; inhibition at 0.5 µM [4]: 20 to 30%
